Test results: patent US10829528B2, “Therapeutic agents for neurological and psychiatric disorders” (VIB VZW, priority 2016, dated 2020)

Key:
GABABR1a = target: T1, GABABR1a (Homo sapiens, UniProt Q9UBS5); test: Cell surface binding assay: Fc-tagged APP proteins applied to GABABR-transfected HEK293 cells, bound Fc detected by immunofluorescence; assay type: cell-based; conditions: Fc-tagged proteins 500 nM, 1 hr at RT; GFP-transfected cells as negative control
T1 construct: expressed in transfected cells; host or cells: HEK293T
Protocol: To confirm the APPα-GABABR interaction and identify the interacting domains, we used a cell-based binding assay. Purified Fc-sAPPα (or its domains) were exogenously applied to GABABR-transfected HEK293 cells. Bound Fc-sAPPα was determined by immunofluorescence.
(§1) We first determined which GABAB subunit and isoform sAPPα bound. The GABABR is comprised of two subunits, the GABABR1 and the GABABR2 subunit. GABABR1 is present as two main isoforms (1a and 1b), with the only difference between these isoforms being the presence of two protein-binding sushi repeats in the ectodomain of GABABR1a (FIG. 1A-B). […] The sequence of the Sushi domain 1 is […].
HEK293T cells were transfected with GFP (as negative control) or pdisplay-GABABR-1a, -1b, or -2 plasmids using Fugene6 (Promega). Twenty-four hours after transfection, the cells were incubated with Fc (as negative control) or the various Fc-tagged APP proteins (500 nM, in Dulbecco's modified Eagle's medium [DMEM] supplemented with 20 mM HEPES [pH 7.4]) for 1 hr at RT. After three brief washes with DMEM/20 mM HEPES (pH 7.4), cells were fixed in 4% paraformaldehyde, 4% sucrose in PBS. […] Image thresholding was set with ImageJ software using constant settings per experiment and the area of Fc binding was measured relative to cell area.

[1] = target: T2, sushi1 domain of GABABR1a (Homo sapiens, UniProt Q9UBS5); test: Isothermal titration calorimetry (ITC) with purified sushi1; assay type: binding
T2 construct: made in house
Protocol: as §1
All ITC experiments were carried out on a MicroCal iTC200 system. For ITC experiments involving APP constructs expressed in HEK293 cells, the purified GABABR1a-Sushi1 domain, sAPPα, CuBDAcD, AcD and CuBD constructs were buffer-exchanged by size exclusion chromatography in 20 mM Na-HEPES pH 7.0, 150 mM NaCl supplemented with 5 mM CaCl2. Concentrated samples were diluted and degassed before the experiment at the concentrations reported in the FIG. legends. sAPP fragments (all of them at 30 μM) were placed in the MicroCal sample cell and matching buffer was placed in the reference cell. Sushi1 (300 μM) was in the syringe and was injected into the cell in a series of 1 μL injections at 25° C. All the datasets were subtracted with a reference data consisting of serial injections of Sushi1 in the cell, containing buffer only under the same conditions. For ITC experiments involving synthetic APP peptides, the Sushi-1 protein was dialysed overnight to PBS buffer. […]

[2] = tested on: primary hippocampal neurons; test: mEPSCs & mIPSCs in cultured primary hippocampal neurons (wild type); assay type: cell-based, mouse; conditions: acute application, 250 nM each
Protocol: mEPSCs & mIPSCs are measured in cultured primary hippocampal neurons at baseline and following acute application of agonists. Excitatory terminals selectively express the sushi domain-containing GABABR1a isoform (ref18), where it functions to inhibit neurotransmitter release (ref 24). Acute exposure of primary hippocampal neurons from wild type mice to 30μM baclofen, a GABABR agonist, or 250 nM sAPPα (Fc cleaved) reduces the frequency of miniature excitatory postsynaptic currents (mEPSCs) by 68% (FIG. 8 a,b) and 39% (FIG. 8 c,d), respectively, with no effect on mEPSC amplitude (FIG. 8e). […] Acute application of 30 μM baclofen or 250 nM purified sAPPα reduces the frequency of miniature inhibitory postsynaptic currents (mIPSCs) by 63% (FIG. 8a, 9a) and 44% (FIG. 8c, 9b), respectively, which is blocked by pretreatment with the GABABR antagonist CGP55845 (CGP, 5 μM) (FIG. 8f, 9d). Application of sAPPα causes a minor (14%) reduction on mIPSC amplitude (FIG. 8e, 9c). […] Baclofen is known to reduce the frequencies of mEPSCs and mIPSCs, which we have also confirmed. […] To confirm that the agonist is acting through GABABR1a, the agonist is tested in cultures with shRNA mediated knockdown of GABABR1a or antisense oligonucleotides mediated exon skipping of the exon encoding the Sushi domain 1 of GABABR1a. Antagonists are tested by treatment in combination with the agonist, Baclofen. […] As an antagonist we test an antibody against the sushi domain sequence (SEQ ID No: 5): […] SWTDMDTPSRCV. An antibody specifically binding to this domain which acts as an antagonist increases the frequencies of mEPSCs and mIPSCs. sAPPα also reduces mEPSC and mIPSC frequency in App/Aplp1 dKO cultures (FIG. 8j, 9f), excluding the possibility that sAPPα interferes with a complex of full-length APP and GABABR1 to exert its effect on GABABR signaling.
Hippocampal neurons were cultured from E18 C57/B16 wild type mice or APP/APLP1 dKO mice (provided by Ulrike Muller46) and plated on poly-D-lysine (Millipore), and laminin (Invitrogen) coated coverslips (Nalge Nunc International). Neurons were maintained in Neurobasal medium (Invitrogen) supplemented with B27, glucose, glutamax, penicillin/streptomycin (Invitrogen) and 25 μM β-mercaptoethanol.
Single neurons from wild type or APP/APLP1 null mutant embryos (E18) were recorded within the large neuronal network at DIV 12-15. The intracellular whole-cell pipette medium contained (in mM): 136 KCl, 18 HEPES, 4 Na-ATP, 4.6 MgCl2, 15 Creatine Phosphate, 1 EGTA and 50 U/ml Phospocreatine Kinase (300 mOsm, pH 7.30). Regular external solution contained 2 mM/2 mM Ca2+/Mg2+(in mM: 140 NaCl, 2.4 KCl, 2 CaCl2), 2 MgCl2, 10 HEPES, 14 Glucose (300 mOsm, pH 7.30)) and TTX (1 μM). Pharmacological reagents (30 μM baclofen, 5 μM CGP), sAPLP1, full length sAPP and sAPP derived peptides (250 nM each) were bath applied (dissolved in external medium described above) using a separate gravity driven application inlet. Recordings were done in whole cell voltage clamp configuration at −70 mV with a double EPC-10 amplifier (HEKA Elektronik) under control of Patchmaster v2×32 software (HEKA Elektronik). Currents were low-pass filtered at 3 kHz and stored at 20 kHz. Patch pipettes were pulled from borosilicate glass using a multi-step puller (P-1000; Sutter Instruments). Pipette resistance ranged from 3 to 5 MΩ and was compensated to 75-80%. Only cells with series resistances <15 MΩ were included in analysis. All recordings were done at room temperature. Spontaneous events were detected using Mini Analysis program (Synaptosoft). mEPSCs and mIPSCs were separated on the basis of their distinct decay kinetics, using a threshold of 5 ms47. Baseline was determined from an average of 60 sec of recordings prior to protein or drug treatment. Effect of treatment was determined from an average of 30 sec recordings after 140 sec of protein or drug treatment.

CA1 pyramidal neurons = test: Long-term potentiation in hippocampal slices; assay type: cell-based; conditions: non-primed high frequency stimulation protocol for agonists
Protocol: Long-term potentiation (LTP) is induced by stimulation of Schaffer collateral fibers and the response of CA1 pyramidal neurons is measured by extracellular recordings. For measuring antagonists, a primed burst stimulation protocol is used to activate GABABR receptors. Under this protocol, an antagonist blocks induction of LTP. For measuring agonists, a non-primed high frequency stimulation protocol is used.

T2 sequence (Q9UBS5 26-97): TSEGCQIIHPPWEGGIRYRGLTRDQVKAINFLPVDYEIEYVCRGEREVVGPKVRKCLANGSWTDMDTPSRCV
T1 sequence (Q9UBS5 20-591 limits assumed): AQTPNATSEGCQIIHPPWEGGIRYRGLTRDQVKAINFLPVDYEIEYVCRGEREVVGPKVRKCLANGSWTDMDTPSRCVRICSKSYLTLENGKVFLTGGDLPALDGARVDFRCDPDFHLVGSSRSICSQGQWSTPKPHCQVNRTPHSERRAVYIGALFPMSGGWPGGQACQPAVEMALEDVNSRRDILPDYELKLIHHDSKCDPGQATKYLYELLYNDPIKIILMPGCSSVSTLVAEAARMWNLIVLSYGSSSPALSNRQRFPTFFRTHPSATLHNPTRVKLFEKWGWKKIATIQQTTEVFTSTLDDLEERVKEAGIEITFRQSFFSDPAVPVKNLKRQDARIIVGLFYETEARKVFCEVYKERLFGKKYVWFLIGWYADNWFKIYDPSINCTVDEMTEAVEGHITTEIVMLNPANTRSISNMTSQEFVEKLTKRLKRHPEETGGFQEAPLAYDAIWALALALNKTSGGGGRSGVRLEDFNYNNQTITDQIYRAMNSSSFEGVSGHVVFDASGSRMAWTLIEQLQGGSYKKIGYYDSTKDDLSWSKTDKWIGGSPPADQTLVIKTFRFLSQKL

ED: Fc-fusion of the 33 aa extension domain, mouse APP695 195-227aa
binding to GABABR1a-expressing HEK293 cells (immunofluorescence) (GABABR1a): sufficient for binding to GABABR1a

GGADTDYADG (listed as Homo sapiens) [residues 211-220, synthetic peptide within the ExD, 211-220AA of APP695]
binding to sushi1 by ITC (in words) [1]: fails to bind

NVDSADAEEDDSDVWWGGADTDYADGSEDKVVE (listed as Homo sapiens) [Extension domain of human sAPPα (33 amino acids)]
effect on mEPSC frequency (in words) [2]: reduces the frequencies of mEPSCs and mIPSCs | effect on mIPSC frequency (in words) [2]: reduces the frequencies of mEPSCs and mIPSCs | effect on LTP (CA1 pyramidal neurons): facilitates LTP
